Test results: patent US5629430A, “Trifluoromethylpyrroloindolecarboxylic acid ester and process for production thereof” (Kyorin Pharmaceutical Co., Ltd., priority 1992, dated 1997)
Values after ≈ are worked out from the molar mass of the structure shown. Where a name gives a salt, the structure may show the parent alone. Read-outs that look alike come from different tables or passages of the source.

Columns and labels:
[1] = tested on: P388 mouse leukemia cells; test: Activity against tumor cell growth (P388, MTT, 72 h); format: cell-based; conditions: P388 mouse leukemia cells, 72 h, 37° C., MTT; read-out: IC50 (50% growth inhibition concentration)
Method: Using a culture medium RPMI1640 supplemented with 10% inactivated bovine fetal serum, 2 mM glutamine, 100 μ/ml kanamycin sulfate, and 5 μM 2-hydroxyethyldisulfide (This culture medium is hereinafter referred to simply as "culture medium"), P388 mouse leukemia cells were diluted to a concentration of 1.5×10^5 cells/ml in the culture medium, and were placed in each well of 96-well multiplate in 60 μl portions. Separately, the test compound was dissolved in dimethylsulfoxide and was adequately diluted with the culture medium. The diluted solution containing test compound was added to the wells of the above plate respectively in 60 μl portions. Then the cells were incubated in a CO2 -incubator (5% CO2, 37° C.) for 72 hours.
The surviving cell numbers were measured according to the Mosmann's method (J. Immunol. Meth., 65 55-63, 1983) as follows. A 2.5 mg/ml solution of MTT (3-[4,5-dimethylthiazol-2-yl]-2,5-diphenyltetrazolium bromide) in Dulbecco's phosphate buffer solution (PBS) was prepared and added to each of the wells by 20 μl. The cells were further incubated for 3 hours. A 150 μl portion of 0.04N hydrochloric acid-isopropanol solution was added to each of the wells, and MTT-formazane formed was allowed to dissolve by pipetting. The absorbance of the solutions was measured at 540 nm taking the no-cell-containing [solution as the background. The 50% growth inhibition concentration (ICs50) was calculated from ratio of the absorbances of the treated samples to the absorbance of the no-medicine-treated sample, and from the concentration of the test compound.

Sarcoma-180 cells = test: Antineoplastic activity, mice having Sarcoma-180 cells transplanted subcutaneously; format: in vivo, mouse (female, CDR strain); conditions: Mus musculus, Sarcoma-180, iv, 144 h, read-out: T/C (average tumor weight, dosed vs. solvent-dosed control); for response vs control in vivo at 0.125 mg/kg: i.v. 0.125 mg/kg single dose
Method: The test compound was dissolved in dimethylsulfoxide, and the solution was adequately diluted with 10% Emulfore EL620(produced by Rhone Poulenc Co.) to prepare the test compound solution. The antineoplastic activity was evaluated as below.
To the lateral region of a female mouse (CDR strain, 5 to 6 week age), 3.6×10^6 to 5×10^6 Sarcoma-180 cells were transplanted subcutaneously. Next day, the test medicine solution was injected into the tail vein in a single dose. Eight to twelve mice were employed for the solvent-dosed control group, and five mice were employed for the dosed group. Six days after the dosage, the tumor was cut out, and the weight thereof was measured. The antineoplastic effect was evaluated by the ratio (T/C) of the average tumor weight of the dosed group (T) to the average tumor weight of the solvent-dosed control group (C).

[2] = i.v. 0.25 mg/kg single dose, tumor weighed six days after dosage
[3] = tumor weighed six days after dosage

`COC(=O)c1c(C(F)(F)F)[nH]c2c(O)cc3c(c12)C(CCl)CN3C(=O)c1cc2cc(NC(=O)c3cc4cccc(OC)c4o3)ccc2[nH]1` (stereo not drawn) [Example 11, Methyl 1-chloromethyl-5-hydroxy-3-[5-[(7-methoxybenzofuran-2-ylcarbonyl)amino]-1H-indol-2-ylcarbonyl]-7-trifluoromethyl-1,2,3,6-tetrahydropyrrolo[3,2-e]indole-8-carboxylate] gave an IC50 [1] of 0.67 ng/mL (≈ 0.984 nM) and a response vs control in vivo at 1 mg/kg (Sarcoma-180 cells; i.v. 1.0 mg/kg single dose, tumor weighed six days after dosage) of 6%.

With `COC(=O)c1c(C(F)(F)F)[nH]c2c(O)cc3c(c12)C(CCl)CN3C(=O)c1cc2cc(NC(=O)c3ccc4ccccc4c3)ccc2[nH]1` (stereo not drawn) [Example 15, Methyl 1-chloromethyl-5-hydroxy-3-[5-[(naphthalene-3-ylcarbonyl)amino]-1H-indol-2-ylcarbonyl]-7-trifluoromethyl-1,2,3,6-tetrahydropyrrolo[3,2-e]indole-8-carboxylate] the IC50 [1] was 0.83 ng/mL (≈ 1.26 nM) and the response vs control in vivo at 0.5 mg/kg (Sarcoma-180 cells; i.v. 0.5 mg/kg single dose, tumor weighed six days after dosage) was 11%.

`COC(=O)c1c(C(F)(F)F)[nH]c2c(O)cc3c(c12)C(CCl)CN3C(=O)c1cc2cc(NC(=O)c3cc4c(cn3)[nH]c3ccccc34)ccc2[nH]1` (stereo not drawn) [Example 19, Methyl 1-chloromethyl-5-hydroxy-3-[5-[(9H-pyrido[3,4-b]indol-3-ylcarbonyl)amino]-1H-indol-2ylcarbonyl]-7-trifluoromethyl-1,2,3,6-tetrahydropyrrolo[3,2e]indole-8-carboxylate] showed an IC50 [1] of 0.11 ng/mL (≈ 0.157 nM) and a response vs control in vivo at 0.25 mg/kg (Sarcoma-180 cells; [2]) of 22%.

`COC(=O)c1c(C(F)(F)F)[nH]c2c1C13CC1CN(C(=O)c1cc4cc(NC(=O)c5cc6cc(OC)c(OC)c(OC)c6[nH]5)ccc4[nH]1)C3=CC2=O` (stereo not drawn) [Example 27, Methyl 6-trifluoromethyl-2-[5-[(5,6,7-trimethoxy-1H indol-2-ylcarbonyl)amino]-1H-indol-2-ylcarbonyl]-1,2,8,8a-tetrahydrocyclopropa[c]pyrrolo[3,2-e]indole-4 (5H)-one-7-carboxylate] was tested, and the IC50 [1] was 0.17 ng/mL (≈ 0.242 nM) and the response vs control in vivo at 0.125 mg/kg (Sarcoma-180 cells; [3]) was 19%.

`COC(=O)c1c(C(F)(F)F)[nH]c2c1C13CC1CN(C(=O)c1cc4cc(NC(=O)c5cc6c(OC)c(OC)c(OC)cc6[nH]5)ccc4[nH]1)C3=CC2=O` (stereo not drawn) [Example 28, Methyl 6-trifluoromethyl-2-[5-[(4,5,6-trimethoxy-1-H-indol-2-ylcarbonyl)amino]-1H-indol-2-ylcarbonyl]-1,2,8,8a-tetrahydrocyclopropa[c]pyrrolo[3,2-e]indole-4(5H)-one-7-carboxylate] was tested, and the IC50 [1] was 0.11 ng/mL (≈ 0.156 nM) and the response vs control in vivo at 0.25 mg/kg (Sarcoma-180 cells; [2]) was 28%.

For `COC(=O)c1c(C(F)(F)F)[nH]c2c1C13CC1CN(C(=O)c1cc4cc(NC(=O)c5cc6ccccc6cn5)ccc4[nH]1)C3=CC2=O` (stereo not drawn) [Example 31, Methyl 3-[5-[(isoquinolin-3-ylcarbonyl)amino]-1H-indol-2-ylcarbonyl]-6-trifluoromethyl-1,2,8,8a-tetrahydrocyclopropa[c]pyrrolo[3,2-e]indol-4 (5H)-one-7-carboxylate], the IC50 [1] was 0.1 ng/mL (≈ 0.16 nM) and the response vs control in vivo at 0.125 mg/kg (Sarcoma-180 cells; [3]) was 24%.

`COC(=O)c1c(C(F)(F)F)[nH]c2c1C13CC1CN(C(=O)c1cc4cc(NC(=O)c5cc6c(OC)c(OC)c(OC)cc6cn5)ccc4[nH]1)C3=CC2=O` (stereo not drawn) [Example 32, Methyl 6-trifluoromethyl-2-[5-[(5,6,7-trimethoxyisoquinolin-3-ylcarbonyl)amino]-1H-indol-2-ylcarbonyl]-1,2,8,8a-tetrahydrocyclopropa[c]pyrrolo[3,2e]indol-4 (5H)-one-7-carboxylate] gave an IC50 [1] of 0.09 ng/mL (≈ 0.126 nM) and a response vs control in vivo at 0.125 mg/kg (Sarcoma-180 cells; [3]) of 23%.

Compound `COC(=O)c1c(C(F)(F)F)[nH]c2c(O)cc3c(c12)C(CBr)CN3C(=O)c1cc2cc(NC(=O)c3cc4ccccc4o3)ccc2[nH]1` (stereo not drawn) [Example 37, Methyl 3-[5-[(benzofuran-2-ylcarbonyl)amino]-1H-indol-2-ylcarbonyl]-1-bromomethyl-5-hydroxy-7-trifluoromethyl-1,2,3,6-tetrahydropyrrolo[3,2-e]indole-8-carboxylate] has an IC50 [1] of 0.61 ng/mL (≈ 0.877 nM) and a response vs control in vivo at 0.25 mg/kg (Sarcoma-180 cells; [2]) of 24%.

`COC(=O)c1c(C(F)(F)F)[nH]c2c(O)cc3c(c12)C(CBr)CN3C(=O)c1cc2cc(NC(=O)c3cc4ccccc4cn3)ccc2[nH]1` (stereo not drawn) [Example 43, Methyl 1-bromomethyl-5-hydroxy-3-[5-[(isoquinolin-3-ylcarbonyl)amino]-1H-indol-2-ylcarbonyl]-7-trifluoromethyl-1,2,3,6-tetrahydropyrrolo[3,2-e]indole-8-carboxylate] was tested, and the IC50 [1] was 0.1 ng/mL (≈ 0.142 nM) and the response vs control in vivo at 0.125 mg/kg (Sarcoma-180 cells; [3]) was 25%.

With `COC(=O)c1c(C(F)(F)F)[nH]c2c(O)cc3c(c12)C(CCl)CN3C(=O)c1cc2cc(NC(=O)c3cc4c(OC)c(OC)c(OC)cc4nn3)ccc2[nH]1` (stereo not drawn) [Example 50, Methyl 1-chloromethyl-5-hydroxy-7-trifluoromethyl-3-[5-[(5,6,7-trimethoxycinnolin-3-ylcarbonyl)amino]-1H-indol-2-ylcarbonyl]-1,2,3,6-tetrahydropyrrolo[3,2-e]indole-8-carboxylate] the IC50 [1] was 4.5 ng/mL (≈ 5.98 nM) and the response vs control in vivo at 4 mg/kg (Sarcoma-180 cells; i.v. 4.0 mg/kg single dose, tumor weighed six days after dosage) was 15%.

In the case of `COC(=O)c1c(C(F)(F)F)[nH]c2c(OC(=O)N3CCN(C)CC3)cc3c(c12)C(CCl)CN3C(=O)c1cc2cc(NC(=O)c3cc4cc(OC)c(OC)c(OC)c4[nH]3)ccc2[nH]1` (stereo not drawn) [Example 51, Methyl 1-chloromethyl-5-(4-methylpiperazin-1-ylcarbonyl)oxy-7-trifluoromethyl-3-[5-[(5,6,7-trimethoxy1H-indol-2-ylcarbonyl)amino]-1H-indol-2-ylcarbonyl)-1,2,3,6tetrahydropyrrolo[3,2-e]indol, e-8-carboxylate], the response vs control in vivo at 4 mg/kg (Sarcoma-180 cells) is reported as 25%.

`COC(=O)c1c(C(F)(F)F)[nH]c2c(OC(=O)N3CCN(C)CC3)cc3c(c12)C(CCl)CN3C(=O)c1cc2cc(NC(=O)c3cc4ccccc4cn3)ccc2[nH]1` (stereo not drawn) [Example 52, Methyl 1-chloromethyl-5-(4-methylpiperazin-1-ylcarbonyl)oxy-3-[5-[(isoquinolin-3-ylcarbonyl)amino]-1H-indol-2-ylcarbonyl)-7-trifluoromethyl-1,2,3,6-tetrahydropyrrolo[3,2-e]indole-8-carboxylate] gave a response vs control in vivo at 1 mg/kg (Sarcoma-180 cells) of 12%.

For `COC(=O)c1c(C(F)(F)F)[nH]c2c(OC(=O)N3CCN(C)CC3)cc3c(c12)C(CBr)CN3C(=O)c1cc2cc(NC(=O)c3cc4cc(OC)c(OC)c(OC)c4[nH]3)ccc2[nH]1` (stereo not drawn) [Example 53, Methyl 1-bromomethyl-5-(4-methylpiperazin-1-ylcarbonyl)oxy-7-trifluoromethyl-3-[5-[(5,6,7-trimethoxy1H-indol-2-ylcarbonyl)amino]1H-indol-2-ylcarbonyl]-1,2,3,6-tetrahydropyrrolo[3,2-e]indole-8-carboxylate], the response vs control in vivo at 4 mg/kg (Sarcoma-180 cells) was 20%.

For `COC(=O)c1c(C(F)(F)F)[nH]c2c(OC(=O)N3CCN(C)CC3)cc3c(c12)C(CBr)CN3C(=O)c1cc2cc(NC(=O)c3cc4ccccc4cn3)ccc2[nH]1` (stereo not drawn) [Example 54, Methyl 1-bromomethyl-5-(4-methylpiperazin-1-ylcarbonyl)oxy-3-[5-[(isoquinolin-3-ylcarbonyl)amino]-1H-indol-2-ylcarbonyl]-7-trifluoromethyl-1,2,3,6-tetrahydropyrrolo[3,2-e]indole-8-carboxylate hydrochloride salt], the response vs control in vivo at 0.25 mg/kg (Sarcoma-180 cells) was 15%.
